MIC, IC50 and inhibition data for three compounds are collected here from ChEMBL document CHEMBL4602666, “Nostotrebin 6 Related Cyclopentenediones and δ-Lactones with Broad Activity Spectrum Isolated from the Cultivation Medium of the Cyanobacterium Nostoc sp. CBT1153” (J Nat Prod, 2020).

In one assay the test system is Enterococcus faecium. Put plainly: Antibacterial activity against Enterococcus faecium BM4147-1 assessed as reduction cell viability after 16 to 20 hrs by CLSI based two-fold serial dilution method. In kind it is functional.
In a further assay the test system is HeLa. Put plainly: Cytotoxicity against human HeLa cells assessed as reduction in cell viability after 24 hrs by resazurin staining based fluorescence assay. In general terms: The colour change of resazurin is a common sign of viable cells or microbes.
Another assay has as its system Staphylococcus aureus. Put plainly: Antibacterial activity against Staphylococcus aureus ATCC 29213 assessed as reduction cell viability after 16 to 20 hrs by CLSI based two-fold serial dilution method. In kind it is functional.
Another assay relates to Bacillus subtilis. Put plainly: Antibacterial activity against Bacillus subtilis 168 assessed as reduction cell viability after 16 to 20 hrs by CLSI based two-fold serial dilution method. In kind it is functional.
The target of another assay is Rhodesain (Trypanosoma brucei rhodesiense, UniProt Q95PM0). Briefly: Inhibition of Trypanosoma brucei rhodesiense C-terminal full length rhodesain expressed in Pichia pastoris using Cbz-PheArg-AMC as substrate measured every 30 sec for 10 mins by fluorescence based assay.
Chain of Rhodesain (Q95PM0 whole entry): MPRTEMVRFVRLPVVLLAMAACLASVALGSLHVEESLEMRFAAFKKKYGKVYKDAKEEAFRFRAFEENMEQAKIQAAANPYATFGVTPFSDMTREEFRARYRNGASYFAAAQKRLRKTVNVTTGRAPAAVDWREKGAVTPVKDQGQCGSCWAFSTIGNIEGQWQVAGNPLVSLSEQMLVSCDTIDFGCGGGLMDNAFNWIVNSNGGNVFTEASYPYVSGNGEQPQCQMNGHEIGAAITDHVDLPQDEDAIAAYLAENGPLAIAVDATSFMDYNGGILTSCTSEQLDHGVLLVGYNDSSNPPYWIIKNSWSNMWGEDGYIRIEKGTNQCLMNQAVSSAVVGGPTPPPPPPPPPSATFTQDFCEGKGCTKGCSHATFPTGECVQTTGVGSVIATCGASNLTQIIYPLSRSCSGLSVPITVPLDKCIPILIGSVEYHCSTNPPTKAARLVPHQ
Assay [1] deals with Rhodesain (Trypanosoma brucei rhodesiense) (UniProt Q95PM0). Put plainly: Inhibition of Trypanosoma brucei rhodesiense C-terminal full length rhodesain expressed in Pichia pastoris using Cbz-PheArg-AMC as substrate preincubated for 5 to 30 mins followed by substrate and measured every 30 sec for 10 mins by fluorescence based assay.
Chain of Rhodesain (Trypanosoma brucei rhodesiense) (Q95PM0 1-450): as the sequence (Q95PM0 whole entry) above
Assay [2] shares this target. Briefly: Inhibition of Trypanosoma brucei rhodesiense C-terminal full length rhodesain expressed in Pichia pastoris at 50 uM using Cbz-PheArg-AMC as substrate measured every 30 sec for 10 mins in presence of 0.005 to 0.025 % of Brij-35 by fluorescence based assay.
Assay [3] shares this target. Put plainly: Inhibition of Trypanosoma brucei rhodesiense C-terminal full length rhodesain expressed in Pichia pastoris at 50 uM using Cbz-PheArg-AMC as substrate measured every 30 sec for 10 mins in presence of 4.75 mM DTT by fluorescence based assay.

Each structure is given as a SMILES string. Converted amounts (≈) assume the structure as drawn. The source made the active and inactive calls.

For orientation: MIC means the smallest concentration in the dilution series that meets the test's criterion for growth inhibition. A word on the IC50: it is the concentration that inhibits the measured activity by half. Regarding `O=C1C(Cc2ccc(O)cc2)=C(Cc2ccc(O)cc2)C(=O)C1(c1ccc(O)cc1)c1cc(Cc2c(Cc3ccc(O)cc3)cc(-c3ccc(O)cc3)oc2=O)c(O)cc1O`, the MIC in the assay with Enterococcus faecium came out at 13 µM (≈ 10.6 µg/mL); with Staphylococcus aureus it was 3 µM (≈ 2.44 µg/mL); in the assay on Bacillus subtilis, 3 µM (≈ 2.44 µg/mL). The IC50 with HeLa and against Rhodesain was 33 µM each time.

Regarding `O=C1C(Cc2ccc(O)cc2)=C(Cc2ccc(O)cc2)C(=O)C1(c1ccc(O)cc1)C1(c2ccc(O)cc2)C(=O)C(Cc2ccc(O)cc2)=C(Cc2ccc(O)cc2)C1=O`, the MIC with Enterococcus faecium, in the assay on Staphylococcus aureus and in the assay with Bacillus subtilis was 13 µM (≈ 10.4 µg/mL) throughout. The IC50 in the assay on HeLa came out at 16 µM; against Rhodesain, 15 µM. In addition, the inhibition result in assay [1], in assay [2] and in assay [3] was “Active” throughout.

For the compound `O=c1oc(-c2ccc(O)cc2)cc(Cc2ccc(O)cc2)c1Cc1ccc(O)cc1O`, the figures for the minimum inhibitory concentration (MIC) in the assay with Enterococcus faecium, in the assay on Staphylococcus aureus and in the assay on Bacillus subtilis were 100 µM (≈ 41.6 µg/mL), 50 µM (≈ 20.8 µg/mL) and 50 µM (≈ 20.8 µg/mL), respectively. Also, the IC50 in the assay with HeLa was 84 µM; on Rhodesain, 63 µM.
